Laboratory results from paper PMC6374824 (International Journal of Endocrinology, 2019).
“Also recorded” adds a separate entry of the source.

Experiments:
islet amyloid = conditions: ref [27]; cited from earlier work
Source text: In the present study, a pentapeptide inhibitor Phe-Leu-Pro-Asn-Phe (FLPNF) that contains only five amino acids has been designed. […] Even so, FLPNF was optimally designed and consisted of ...

hIAPP [1] = biological target: T1, hIAPP (Homo sapiens, UniProt P10997); conditions: ref [25], cited from earlier work; for inhibition of hIAPP aggregation in vitro: [26]
T1 construct: hormone secreted by β-cells consisting of 37 amino acid residues; purchased ChinaPeptide Co. Ltd. (Shanghai, China); host or cells: chemical synthesis
T1 sequence (P10997 34-70 limits assumed): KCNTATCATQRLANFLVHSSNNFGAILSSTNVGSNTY
Source text: In the present study, a pentapeptide inhibitor Phe-Leu-Pro-Asn-Phe (FLPNF) that contains only five amino acids has been designed. […] After that, the ...

fibrils of hIAPP = conditions: ref [25]; cited from earlier work
Source text: In the early research, SNNFGA and GAILSS could not completely prevent the formation of fibr ...

hIAPP [2] = biological target: T1, hIAPP; experiment: Thioflavin T fluorescence assay, time course; format: biochemical; conditions: for ThT fluorescence intensity compared to hIAPP group, significance: PBS pH 7.4, 37°C, unpaired t-test
hIAPP [3] = biological target: T1, hIAPP; experiment: Thioflavin T fluorescence assay, concentration dependence; format: biochemical; conditions: PBS, 24 hours, 37°C
Protocol: The stock solutions were aliquoted and stored at -80°C according to the instructions.
The plates were incubated at 37°C for 0, 12, 24, and 48 hours. Finally, the fluorescence image was detected by an XDY-100 fluorescence microscope (Zhongheng, Shanghai, China). Subsequently, the fluorescence intensity values of each group were measured by a Fluoroskan Ascent FL luminescence meter (Thermo Scientific, USA) using an excitation λ of 435 nm and an emission λ of 485 nm. At each time course, the fluorescence intensity values of the control group were set as 1, while the values of test groups relative to the control group were set as fluorescence intensity (A.U.) and used for statistical analysis. Each experiment was repeated thrice.
The fluorescence images and the fluorescence intensity values of each group were collected after incubating for 24 hours. Each experiment was repeated thrice.

hIAPP amyloid fibrils = experiment: Transmission electron microscopy of hIAPP amyloid fibrils; format: biochemical, human; conditions: PBS, 24 hours, 37°C, 2% phosphotungstic acid stain; for hIAPP fibril formation by TEM, with added peptide: 100 μM peptide + 10 μM hIAPP
Protocol: TEM was used to directly observe the relative density and morphological changes of hIAPP amyloid fibrils. […] A volume of 10 μL of each sample was placed on mesh copper grids (Servicebio, Wuhan, China) and was covered by a carbon-stabilized formvar film. After 3 min, excess fluid was removed, and the grids were stained with 2% phosphotungstic acid for 3 min. Samples were analyzed using a HT7700 transmission electron microscope (Hitachi, Japan).

INS-1 cells = experiment: Cell proliferation assay (MTS), hIAPP cytotoxicity in INS-1 cells
Protocol: The INS-1 cells at a density of 2 × 10^4 were plated in a 96-well plate. […] The untreated control cells received equal fresh medium. The medium of each group contained 0.2 μL DMSO, equal to 0.2% DMSO. Consequently, 10 μL MTS solution was added to each well and incubated for additional 2 hours. The optical density (OD) values were measured at 490 nm using a PowerWave XS2 microplate spectrophotometer (Thermo Scientific, USA). Each experiment was repeated thrice.

hIAPP [4] = biological target: T1, hIAPP; experiment: Biolayer interferometry, FLPNF immobilized; format: binding; conditions: hIAPP 400 μM (method) / 100 μM (Figure 5 legend)
Protocol: Experiments were performed by Shuangtian Biotech Co. Ltd. FLPNF were reconstituted in PBS (pH = 7.4) and immobilized on aminopropylsilane (APS) biosensors. […] This was followed by a 600 sec dissociation phase in dissociation buffer (50% DMSO+0.05% PBST) in PBS. A response unit represented the bonding height on the biosensor. The association and dissociation curves were analyzed and constructed by Octet K2 biolayer interferometry.

D-ANFLVH
reduction of amyloid aggregates in vivo (islet amyloid): could reduce the islet amyloid accumulation in vivo; also recorded: can reduce the formation of amyloid aggregates in vivo

GAILSS
inhibition of hIAPP aggregation in vitro (hIAPP [1]): can inhibit hIAPP aggregation in vitro
prevention of hIAPP fibril formation on TEM images (fibrils of hIAPP): could not completely prevent the formation of fibrils of hIAPP

NFGAIL [reference compound]
ThT fluorescence intensity compared to hIAPP group (luminescence meter) (hIAPP [2]; 100 μM NFGAIL + 10 μM hIAPP, PBS pH 7.4, 20 μM ThT, 37°C, ex 435 nm, em 485 nm, repeated thrice): did not decrease
ThT fluorescence signal compared to 0 μM group (hIAPP [3]; any concentration of NFGAIL (20-400 μM) + 10 μM hIAPP): no reduction
hIAPP fibril formation by TEM, with added peptide (hIAPP amyloid fibrils): did not reduce or even increase the amount of the fibril formation; also recorded: No reduction of the fibrils
effect on hIAPP fibril formation (hIAPP [1]; residues 22–27 of hIAPP, negative control): could enhance hIAPP fibril formation
reduction of cytotoxic effects of hIAPP in INS-1 cells (INS-1 cells; 100 μM NFGAIL + 10 μM hIAPP, 24 hours, MTS, OD 490 nm): no effect of reducing the cytotoxic effects of hIAPP

NFGAILPP
inhibition of hIAPP aggregation in vitro (hIAPP [1]): can inhibit hIAPP aggregation in vitro

NYGAILSS
inhibition of hIAPP aggregation in vitro (hIAPP [1]): can inhibit hIAPP aggregation in vitro

Phe-Leu-Pro-Asn-Phe [FLPNF]
ThT fluorescence intensity compared to hIAPP group, significance (hIAPP [2]; 100 μM FLPNF + 10 μM hIAPP, 24 h, P < 0.05, ex 435 nm, em 485 nm, repeated thrice): significantly lowered
ThT fluorescence intensity compared to hIAPP group, significance (hIAPP [2]; 100 μM FLPNF + 10 μM hIAPP, 48 h, P < 0.01, ex 435 nm, em 485 nm, repeated thrice): significantly lowered
ThT fluorescence intensity compared to hIAPP alone (luminescence meter) (hIAPP [2]; 100 μM FLPNF + 10 μM hIAPP, PBS pH 7.4, 20 μM ThT, 37°C, 12, 24 and 48 hours, ex 435 nm, em 485 nm, repeated thrice): decreased the fluorescence intensity compared to hIAPP alone
ThT fluorescence signal (fluorescence microscope) (hIAPP [2]; 100 μM peptide + 10 μM hIAPP, PBS pH 7.4, 20 μM ThT, 37°C, 24 and 48 hours): strong reduction of the fluorescence signal
inhibition of hIAPP amyloid aggregation (hIAPP [2]; 10 : 1 molar ratio FLPNF to hIAPP, in vitro, ThT): strongly inhibited the amyloid aggregation of hIAPP
inhibitory effect at 48 hours (hIAPP [2]; in vitro, 48 hours): still had an inhibitory effect
inhibition of amyloid formation (hIAPP [2]; tenfold molar excess to hIAPP, PBS, 24 hours): partially inhibited amyloid formation
ThT green fluorescence signal with increasing concentrations (fluorescence microscope) (hIAPP [3]; 0, 20, 50, 100, 200, 400 μM FLPNF + 10 μM hIAPP): gradually decreased
ThT fluorescence intensity with increasing concentrations (luminescence meter) (hIAPP [3]; 0, 20, 50, 100, 200, 400 μM FLPNF + 10 μM hIAPP, repeated thrice): gradually reduced
ThT fluorescence intensity compared to 0 μM group (hIAPP [3]; 100, 200 and 400 μM FLPNF + 10 μM hIAPP, P < 0.05, unpaired t-test, repeated thrice): significantly lowered
hIAPP fibril formation by TEM, with added peptide (hIAPP amyloid fibrils): reduced the amounts of fibril formation; also recorded: not completely prevented but were reduced in density; also recorded: less numerous but appeared to be more thickened
association response (response units) (hIAPP [4]; FLPNF immobilized on APS biosensor, PBS pH 7.4, association 300 sec, Octet K2): approximately 0.02 nm
interaction between FLPNF and hIAPP (hIAPP [4]; biolayer interferometry, immobilized FLPNF): strong interaction
dissociation (hIAPP [4]; dissociation phase 600 sec, 50% DMSO+0.05% PBST in PBS, Octet K2): tardily reversible; also recorded: slowly dropped to 0
INS-1 cell viability compared to hIAPP group (INS-1 cells; 100 μM FLPNF + 10 μM hIAPP, 24 hours, OD 490 nm, P < 0.05, unpaired t-test, repeated thrice): significant improvement in cell viability
INS-1 cell viability, FLPNF alone (INS-1 cells; FLPNF alone, no hIAPP, MTS): no direct effect on the viability of INS-1 cells; also recorded: no direct effect on cell viability
INS-1 cell viability compared to control group, with FLPNF + hIAPP (INS-1 cells; hIAPP with FLPNF at 1 : 10 ratio, 24 hours, MTS): still lower

SNNFGA
inhibition of hIAPP aggregation in vitro (hIAPP [1]): can inhibit hIAPP aggregation in vitro
prevention of hIAPP fibril formation on TEM images (fibrils of hIAPP): could not completely prevent the formation of fibrils of hIAPP

human islet amyloid polypeptide (KCNTATCATQRLANFLVHSSNNFGAILSSTNVGSNTY; Islet amyloid polypeptide; UniProt P10997 34-70, looked up) [hIAPP]
fibril morphology of hIAPP alone by TEM (hIAPP amyloid fibrils; 10 μM hIAPP alone): typical dense fibrils; also recorded: typical morphology and formation of dense aggregates
INS-1 cell viability compared to control group (INS-1 cells; 10 μM hIAPP alone, 24 hours, OD 490 nm, P < 0.001, unpaired t-test, repeated thrice): significantly decreased the cell viability
